Values of other authors in patent publication US7727979B2, “Guanidine derivatives and their use as neuropeptide FF receptor antagonists” (Actelion Pharmaceuticals Ltd., priority 2003, dated 2010).

Test system: human and rat-NPFF1 receptor

For `NC(N)=NCCC[C@@H](NC(=O)C(c1ccccc1)c1ccccc1)C(=O)NCc1ccc(O)cc1` [BIBP3226], the “times higher affinity to NPFF1 receptor than to the corresponding NPFF2 receptors” value is listed as 10-60 times.
